From patent US12209102B2, “Heterocyclic compounds and uses thereof” (Kumquat Biosciences Inc., priority 2022, dated 2025)

Columns and labels:
K-Ras WT = biological target: T1, K-Ras WT (Homo sapiens, UniProt P01116); test: HTRF resonance energy transfer assay, K-Ras WT / SOS1 interaction; type: biochemical; settings: HTRF assay of Example 5; read-out: IC50 against K-Ras WT
T1 construct: made in house; host or cells: E. coli BL21 (DE3)
Method in brief: (§1)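 Read-out: HTRF 665/620 nm ratio (excitation 337 nm) after roughly 10 min or longer incubation, used to derive IC50. Donor anti-GST-Eu on GST-K-Ras; acceptor anti-6His-XL665 on His-hSOS1. Duplicate dose series from 10 μM down to 0.01 μM.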

SW620 cells = test: Ras cellular assay, growth of cells with K-Ras G12V mutation (CellTiter-Glo); type: cell-based; settings: Homo sapiens, SW-620; cell growth, Example 9, G12V mutation; read-out: IC50 against SW620 cells
Method in brief: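 SW620 (K-Ras G12V) cells, e.g. 800/well in RPMI-1640 with 10% heat-inactivated FBS on standard or ultra-low attachment plates, were dosed the day after plating with e.g. a 10-point 3-fold series. Viability by CellTiter-Glo luminescence about 6 days later; IC50 from four-parameter fit.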

K-Ras G12D = biological target: T2, K-Ras G12D (Homo sapiens, UniProt P01116, G12D); test: HTRF resonance energy transfer assay, K-Ras G12D / SOS1 interaction; type: biochemical; settings: HTRF assay of Example 5; read-out: IC50 against K-Ras G12D
T2 construct: made in house; host or cells: E. coli BL21 (DE3)
T2 sequence (P01116 1-188 isoform P01116-2 G12D): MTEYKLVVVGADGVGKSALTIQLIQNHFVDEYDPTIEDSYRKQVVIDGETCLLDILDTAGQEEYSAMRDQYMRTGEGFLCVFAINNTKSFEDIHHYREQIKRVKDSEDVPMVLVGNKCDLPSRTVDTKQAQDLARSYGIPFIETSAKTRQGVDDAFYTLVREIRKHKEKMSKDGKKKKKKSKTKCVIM
Method in brief: as §1

K-Ras G12V = biological target: T3, K-Ras G12V (Homo sapiens, UniProt P01116, G12V); test: HTRF resonance energy transfer assay, K-Ras G12V / SOS1 interaction; type: biochemical; settings: HTRF assay of Example 5; read-out: IC50 against K-Ras G12V
T3 construct: made in house; host or cells: E. coli BL21 (DE3)
T3 sequence (P01116 1-188 isoform P01116-2 G12V): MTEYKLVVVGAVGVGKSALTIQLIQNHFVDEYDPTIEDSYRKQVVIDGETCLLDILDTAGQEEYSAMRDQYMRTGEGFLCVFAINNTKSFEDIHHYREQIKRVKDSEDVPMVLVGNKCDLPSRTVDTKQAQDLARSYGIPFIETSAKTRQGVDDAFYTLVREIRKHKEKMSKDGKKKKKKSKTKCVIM
Method in brief: as §1

GP2D cells = test: Ras cellular assay, growth of cells with K-Ras G12D mutation (CellTiter-Glo); type: cell-based; settings: cell growth, Example 9, G12D mutation, read-out: IC50 against GP2D cells
K-Ras G12S = biological target: T4, K-Ras G12S (Homo sapiens, UniProt P01116, G12S); test: HTRF resonance energy transfer assay, K-Ras G12S / SOS1 interaction; type: biochemical; settings: HTRF assay of Example 5; read-out: IC50 against K-Ras G12S
T4 construct: made in house; host or cells: E. coli BL21 (DE3)
T4 sequence (P01116 1-188 isoform P01116-2 G12S): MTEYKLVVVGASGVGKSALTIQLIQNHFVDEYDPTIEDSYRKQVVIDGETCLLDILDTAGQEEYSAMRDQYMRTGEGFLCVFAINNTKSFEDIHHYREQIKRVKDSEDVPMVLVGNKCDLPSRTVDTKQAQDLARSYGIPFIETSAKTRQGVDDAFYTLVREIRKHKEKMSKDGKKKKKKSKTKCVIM
Method in brief: as §1

A549 cells = test: Ras cellular assay, growth of cells with K-Ras G12S mutation (CellTiter-Glo); type: cell-based; settings: Homo sapiens, cell growth, Example 9, G12S mutation, read-out: IC50 against A549 cells
Method in brief: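 A549 cells (K-Ras G12S) in RPMI-1640 with 10% heat-inactivated FBS, seeded e.g. 800 per well in standard or ultra-low-attachment 384-well plates, treated next day with a dilution series (e.g. 10-point, 3-fold). Viability by CellTiter-Glo luminescence about 6 days later; IC50 from four-parameter fit.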

T1 sequence (P01116 1-188 isoform P01116-2): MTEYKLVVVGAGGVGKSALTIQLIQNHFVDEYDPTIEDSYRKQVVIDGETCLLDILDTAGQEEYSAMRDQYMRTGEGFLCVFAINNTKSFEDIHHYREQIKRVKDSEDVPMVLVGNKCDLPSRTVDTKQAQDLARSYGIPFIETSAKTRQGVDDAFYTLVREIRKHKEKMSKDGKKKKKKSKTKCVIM

IC50 (K-Ras WT) | IC50 (SW620 cells) | IC50 (K-Ras G12D) | IC50 (K-Ras G12V) | IC50 (K-Ras G12S) | IC50 (A549 cells) | Structure (SMILES) | IC50 (GP2D cells)
< 100 nM | < 5000 nM | < 100 nM | < 100 nM | < 100 nM | < 5000 nM | C#Cc1c(F)ccc2cc(O)cc(-c3nc4c5c(nc(OC[C@@]67CCCN6C[C@H](F)C7)nc5c3F)N(C3CCOC3)CCN4)c12 (stereo partly drawn) [Compound 771, 5-ethynyl-6-fluoro-4-(4-fluoro-2-(((2R,7aS)-2-fluorotetrahydro-1H-pyrrolizin-7a(5H)-yl)methoxy)-10-(tetrahydrofuran-3-yl)-7,8,9,10-tetrahydro-1,3,6,7,10-pentaazacyclohepta[de]naphthalen-5-yl)naphthalen-2-ol] | < 500 nM
< 100 nM | < 5000 nM | < 100 nM | < 100 nM | < 100 nM | < 5000 nM | N#Cc1c(N)sc2c(F)ccc(-c3c(Cl)c4c5c(nc(OC[C@@]67CCCN6C[C@H](F)C7)nc5c3F)N(C3CCC(C(F)F)C3)CCO4)c12 (stereo partly drawn) [Compound 718, 2-amino-4-(8-chloro-4-(3-(difluoromethyl)cyclopentyl)-10-fluoro-2-(((2R,7aS)-2-fluorotetrahydro-1H-pyrrolizin-7a(5H)-yl)methoxy)-5,6-dihydro-4H-[1,4]oxazepino[5,6,7-de]quinazolin-9-yl)-7-fluorobenzo[b]thiophene-3-carbonitrile] | < 500 nM
< 100 nM | < 5000 nM | < 100 nM | < 100 nM | < 100 nM | < 5000 nM | N#Cc1c(N)sc2c(F)ccc(-c3c(Cl)c4c5c(nc(OC[C@@]67CCCN6C[C@H](F)C7)nc5c3F)N(C3CCN(C(=O)[C@H]5CCOC5)C3)CCO4)c12 (stereo partly drawn) [Compound 736, 2-amino-4-(8-chloro-10-fluoro-2-(((2R,7aS)-2-fluorotetrahydro-1H-pyrrolizin-7a(5H)-yl)methoxy)-4-(1-((S)-tetrahydrofuran-3-carbonyl)pyrrolidin-3-yl)-5,6-dihydro-4H-[1,4]oxazepino[5,6,7-de]quinazolin-9-yl)-7-fluorobenzo[b]thiophene-3-carbonitrile] | < 500 nM
< 100 nM | < 5000 nM | < 100 nM | < 100 nM | < 100 nM | < 5000 nM | N#Cc1c(N)sc2c(F)ccc(-c3c(Cl)c4c5c(nc(OC[C@@]67CCCN6C[C@H](F)C7)nc5c3F)N(C3CCN(C(=O)COC5CC5)C3)CCO4)c12 (stereo partly drawn) [Compound 812, 2-amino-4-(8-chloro-4-(1-(2-cyclopropoxyacetyl)pyrrolidin-3-yl)-10-fluoro-2-(((2R,7aS)-2-fluorotetrahydro-1H-pyrrolizin-7a(5H)-yl)methoxy)-5,6-dihydro-4H-[1,4]oxazepino[5,6,7-de]quinazolin-9-yl)-7-fluorobenzo[b]thiophene-3-carbonitrile] | < 500 nM
< 100 nM | < 5000 nM | < 100 nM | < 100 nM | < 100 nM | < 5000 nM | N#Cc1c(N)sc2c(F)ccc(-c3c(Cl)c4c5c(nc(OC[C@@]67CCCN6C[C@H](F)C7)nc5c3F)N(C3CCN(C=O)C3)CCO4)c12 (stereo partly drawn) [Compound 1052, 2-amino-4-(8-chloro-10-fluoro-2-(((2R,7aS)-2-fluorotetrahydro-1H-pyrrolizin-7a(5H)-yl)methoxy)-4-(1-formylpyrrolidin-3-yl)-5,6-dihydro-4H-[1,4]oxazepino[5,6,7-de]quinazolin-9-yl)-7-fluorobenzo[b]thiophene-3-carbonitrile] | < 500 nM
< 100 nM | < 5000 nM | < 100 nM | < 100 nM | < 100 nM | < 5000 nM | N#Cc1c(N)sc2c(F)ccc(-c3c(Cl)c4c5c(nc(OC[C@@]67CCCN6C[C@H](F)C7)nc5c3F)N(CCOC(F)F)CCO4)c12 [Compound 713, 2-amino-4-(8-chloro-4-(2-(difluoromethoxy)ethyl)-10-fluoro-2-(((2R,7aS)-2-fluorotetrahydro-1H-pyrrolizin-7a(5H)-yl)methoxy)-5,6-dihydro-4H-[1,4]oxazepino[5,6,7-de]quinazolin-9-yl)-7-fluorobenzo[b]thiophene-3-carbonitrile] | < 500 nM
< 100 nM | < 5000 nM | < 100 nM | < 100 nM | < 100 nM | < 5000 nM | CNC(=O)C1CCC(N2CCOc3c(Cl)c(-c4ccc(F)c5sc(N)c(C#N)c45)c(F)c4nc(OC[C@@]56CCCN5C[C@H](F)C6)nc2c34)C1 (stereo partly drawn) [Compound 633, 3-(9-(2-amino-3-cyano-7-fluorobenzo[b]thiophen-4-yl)-8-chloro-10-fluoro-2-(((2R,7aS)-2-fluorotetrahydro-1H-pyrrolizin-7a(5H)-yl)methoxy)-5,6-dihydro-4H-[1,4]oxazepino[5,6,7-de]quinazolin-4-yl)-N-methylcyclopentane-1-carboxamide] | < 500 nM
< 100 nM | < 5000 nM | < 100 nM | < 100 nM | < 100 nM | < 5000 nM | Cn1ncc(C#N)c1CN1CCOc2c(Cl)c(-c3ccc(F)c4sc(N)c(C#N)c34)c(F)c3nc(OC[C@@]45CCCN4C[C@H](F)C5)nc1c23 [Compound 641, 5-((9-(2-amino-3-cyano-7-fluorobenzo[b]thiophen-4-yl)-8-chloro-10-fluoro-2-(((2R,7aS)-2-fluorotetrahydro-1H-pyrrolizin-7a(5H)-yl)methoxy)-5,6-dihydro-4H-[1,4]oxazepino[5,6,7-de]quinazolin-4-yl)methyl)-1-methyl-1H-pyrazole-4-carbonitrile] | < 500 nM
< 100 nM | < 5000 nM | < 100 nM | < 100 nM | < 100 nM | < 5000 nM | N#Cc1c(N)sc2c(F)ccc(-c3c(Cl)c4c5c(nc(OC[C@@]67CCCN6C[C@H](F)C7)nc5c3F)N(CC3CC(F)(F)C3)CCO4)c12 [Compound 951, 2-amino-4-(8-chloro-4-((3,3-difluorocyclobutyl)methyl)-10-fluoro-2-(((2R,7aS)-2-fluorotetrahydro-1H-pyrrolizin-7a(5H)-yl)methoxy)-5,6-dihydro-4H-[1,4]oxazepino[5,6,7-de]quinazolin-9-yl)-7-fluorobenzo[b]thiophene-3-carbonitrile] | < 500 nM
< 100 nM | < 5000 nM | < 100 nM | < 100 nM | < 100 nM | < 5000 nM | N#Cc1c(N)sc2c(F)ccc(-c3c(Cl)c4c5c(nc(OC[C@@]67CCCN6C[C@H](F)C7)nc5c3F)N(C3CCN(C(=O)CC5COC5)C3)CCO4)c12 (stereo partly drawn) [Compound 1126, 2-amino-4-(8-chloro-10-fluoro-2-(((2R,7aS)-2-fluorotetrahydro-1H-pyrrolizin-7a(5H)-yl)methoxy)-4-(1-(2-(oxetan-3-yl)acetyl)pyrrolidin-3-yl)-5,6-dihydro-4H-[1,4]oxazepino[5,6,7-de]quinazolin-9-yl)-7-fluorobenzo[b]thiophene-3-carbonitrile] | < 500 nM
